Results reported in paper PMC7932537, “Quantitative profiling of protease specificity” (PLoS Computational Biology, 2021).

Columns and labels:
[1] = tested on: MMP-2; assay: Substrate phage display with NGS: relative probability (RP) of P3-P1' tetramer clusters; type: biochemical, human; conditions: MMP2;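 note: ratio of tetramer probability after protease selection to that in naive phage library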
[2] = target: MMP-9 (Homo sapiens, UniProt P14780); assay: K(obs) of individual phage substrates (set of 1369); type: biochemical; conditions: MMP9
[3] = target: T1, MMP-2 (Homo sapiens, UniProt P08253); assay: as above; type: biochemical; conditions: MMP2
T1 sequence (P08253 110-660): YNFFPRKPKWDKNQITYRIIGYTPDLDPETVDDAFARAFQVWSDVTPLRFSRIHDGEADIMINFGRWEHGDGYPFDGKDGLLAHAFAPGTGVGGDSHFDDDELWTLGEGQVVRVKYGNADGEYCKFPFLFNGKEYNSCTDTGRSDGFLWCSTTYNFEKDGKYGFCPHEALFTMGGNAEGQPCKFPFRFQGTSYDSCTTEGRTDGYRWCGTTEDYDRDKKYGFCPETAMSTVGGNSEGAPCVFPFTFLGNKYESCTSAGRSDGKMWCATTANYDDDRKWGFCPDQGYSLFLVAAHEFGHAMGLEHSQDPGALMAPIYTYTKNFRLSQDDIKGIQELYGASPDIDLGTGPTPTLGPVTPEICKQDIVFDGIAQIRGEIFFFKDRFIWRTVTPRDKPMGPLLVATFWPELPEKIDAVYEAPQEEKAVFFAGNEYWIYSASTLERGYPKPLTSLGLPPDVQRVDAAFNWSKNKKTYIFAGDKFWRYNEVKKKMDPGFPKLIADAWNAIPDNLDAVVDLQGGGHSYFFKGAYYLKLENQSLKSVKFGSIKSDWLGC

[4] = RP of the P3-P1' tetramer contained in the substrate
[5] = individual phage substrate of the set of 1369 peptides, dash in the sequence marks the cleavage position
[6] = individual phage substrate of the set of 1369 peptides, cleavage position marked by '-'
[7] = RP of the P3-P1' tetramer contained in the substrate (substrate phage display with NGS)
[8] = individual phage substrates, set of 1369 peptides, hyphen in sequence marks cleavage position
[9] = individual phage substrates, set of 1369 peptides, cleavage position marked by hyphen in sequence

Chain of MMP-9 (P14780 94-707): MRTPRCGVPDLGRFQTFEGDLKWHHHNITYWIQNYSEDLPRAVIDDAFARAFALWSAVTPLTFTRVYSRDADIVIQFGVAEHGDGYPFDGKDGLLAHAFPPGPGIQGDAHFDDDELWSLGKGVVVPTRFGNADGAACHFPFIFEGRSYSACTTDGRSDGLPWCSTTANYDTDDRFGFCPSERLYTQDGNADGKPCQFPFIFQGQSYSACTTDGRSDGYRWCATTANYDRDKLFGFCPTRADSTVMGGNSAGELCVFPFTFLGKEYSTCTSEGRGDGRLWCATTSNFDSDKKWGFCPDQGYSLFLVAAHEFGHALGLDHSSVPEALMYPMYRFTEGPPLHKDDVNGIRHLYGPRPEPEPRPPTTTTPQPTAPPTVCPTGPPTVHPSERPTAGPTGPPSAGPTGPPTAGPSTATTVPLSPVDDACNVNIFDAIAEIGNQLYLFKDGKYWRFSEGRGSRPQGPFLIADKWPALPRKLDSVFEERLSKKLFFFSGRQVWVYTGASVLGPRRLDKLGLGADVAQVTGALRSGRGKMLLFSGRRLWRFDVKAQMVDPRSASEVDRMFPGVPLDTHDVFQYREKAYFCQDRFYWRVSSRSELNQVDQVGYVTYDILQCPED

| Substance | relative probability (RP) [1, 4] | Kobs [2, 5] [M⁻¹ s⁻¹] | Kobs [3, 6] [M⁻¹ s⁻¹] | relative probability (RP) [1, 7] | Kobs [2, 8] [M⁻¹ s⁻¹] | Kobs [3, 9] [M⁻¹ s⁻¹] |
| --- | --- | --- | --- | --- | --- | --- |
| DRQLS-LTASG | 0.4979 | 0 | 84.609 | – | – | – |
| VRAHS-LTASG | – | – | – | 21.0212 | 4922.1 | 4205.91 |
| TGVSW-LTASG | – | – | – | 30.6564 | 10866.7 | 12792.1 |
| GSGWA-LKKVT | – | – | – | 0.09159 | 0 | 0 |
| SGVRH-VRATA | 9.5401 | 12792.1 | 3850.82 | – | – | – |
| SGPLG-YTVTA | 33.1744 | 12792.1 | 12792.1 | – | – | – |
| STVFH-MTASG | – | – | – | 5.168 | 1763.55 | 0 |
| SGAMG-LFRTA | 23.7576 | 619.843 | 142.481 | – | – | – |
| TKYAY-ITASG | – | – | – | 1.709 | 0 | 0 |
| WKVSS-LTASG | – | – | – | 29.0891 | 2218.08 | 10866.7 |
| TTHYS-LTASG | – | – | – | 0.1694 | 142.481 | 0 |
| AVLSN-LTASG | – | – | – | 32.5007 | 261.974 | 8321.48 |
| HRHAH-LTASG | 20.0775 | 0 | 7015.91 | – | – | – |
| RRVLM-MTASG | – | – | – | 2.736 | 1660.66 | 171.876 |
| GGPFL-LKTAS | – | – | – | 9.085 | 8321.48 | 1513.13 |
| RAPAS-LTASG | 36.4285 | 12792.1 | 12792.1 | – | – | – |
| YNWRH-LTASG | – | – | – | 0.4087 | 619.843 | 799.117 |
| GSPYG-LLTAS | 32.9966 | 12792.1 | 8941.32 | – | – | – |

| Substance | relative probability (RP) [1, 4] | Kobs [2, 5] [M⁻¹ s⁻¹] | Kobs [3, 6] [M⁻¹ s⁻¹] | relative probability (RP) [1, 7] | Kobs [2, 8] [M⁻¹ s⁻¹] | Kobs [3, 9] [M⁻¹ s⁻¹] |
| --- | --- | --- | --- | --- | --- | --- |
| YYPRA-LTASG | 35.2345 | 12792.1 | 12792.1 | – | – | – |
| AKVMS-LTASG | – | – | – | 14.6983 | 2218.08 | 1513.13 |
| NMWAH-LTASG | – | – | – | 7.453 | 323.705 | 3079.62 |
| RVPYG-LTASG | 32.9966 | 7015.91 | 6131.32 | – | – | – |
| QSPRM-LTASG | 30.5973 | 10866.7 | 10866.7 | – | – | – |
| PKMSH-LTASG | 24.6165 | 0 | 2409.72 | – | – | – |
| SGWAP-LLRTA | – | – | – | 23.9342 | 142.481 | 142.481 |
| HAPLN-FTASG | 28.3679 | 10866.7 | 12792.1 | – | – | – |
| RFALN-LTASG | – | – | – | 17.2813 | 9740.44 | 7015.91 |
| SGPSS-LFATA | 35.4913 | 12792.1 | 12792.1 | – | – | – |
| RILGY-LTASG | – | – | – | 24.8925 | 292.668 | 12792.1 |
| SGPSG-MRVTA | – | – | – | 32.7604 | 6688.74 | 7386.83 |
| GYIQS-LFTAS | – | – | – | 25.2682 | 0 | 5461.43 |
| GISQS-LITAS | – | – | – | 5.003 | 0 | 0 |
| SGPMF-LWTTA | 18.5721 | 10866.7 | 1283.43 | – | – | – |
| SGMGH-LLHTA | 26.7019 | 0 | 654.784 | – | – | – |
| SKPNF-LTASG | 15.743 | 3741.87 | 5889.62 | – | – | – |
